One test concerns p16 gene. The conditions noted are these: HCT15 cells, in which the p16 CpG island is methylated and the p16 gene is inactive; cited from earlier work.
Test [1] deals with p16 CpG island sequences associated with acetylated histone H3 in HCT15 cells. In words: Chromatin immunoprecipitation with anti-acetylated histone H3 antibody, real-time quantitative PCR (Taqman). The format is cell-based, human. Particulars: HCT15 cells treated with 2 μM 5-azacytidine during three-day growth, compared to untreated cells; VEGF gene region as control sequence. The source says:
In this example, chromatin immunoprecipitation (ChIP) was used to enrich a population of DNA fragments comprising regulatory sequences for the p16 tumor suppressor gene, by virtue of their association with acetylated histone H3. A CpG island is located in the p16 gene (GenBank Accession No. AF022809), between about 30 nucleotide pairs upstream, and about 590 nucleotide pairs downstream of the transcriptional startsite identified by Hara et al. (1996) Mol. Cell. Biol. 16:859-867. One form of regulation of genes associated with CpG islands is through methylation of C residues within the CpG island. […]
Untreated and 5-azacytidine-treated HCT15 cells were analyzed by chromatin immunoprecipitation to test for a specific association of acetylated H3 with unmethylated (i.e., active) CpG island sequences. […] Then, in both portions, formaldehyde crosslinks were reversed, DNA was purified, and the purified DNA was analyzed by means of a real-time quantitative PCR assay, known colloquially as “Taqman®.” The DNA was analyzed for the relative proportion of two sequences: (1) a region adjacent to the CpG island located in the 5′-untranslated region of the p16 gene (see above), and (2) a portion of the VEGF gene corresponding to the region from 2324 to 2246 nucleotide pairs upstream of the transcription initiation site.
(In general: Real-time PCR tracks product formation cycle by cycle.)

As for `Nc1ncn([C@@H]2O[C@H](CO)[C@@H](O)[C@H]2O)c(=O)n1` [5-azacytidine], the p16 transcription entry with p16 gene is “activation of p16 transcription”. For the same molecule, the “enrichment of p16 CpG island sequences associated with acetylated H3” value in test [1] is “approximately 10 fold”.

The record behind these values is patent publication US6610489B2, “Pharmacogenomics and identification of drug targets by reconstruction of signal transduction pathways based on sequences of accessible regions” (Sangamo BioSciences, Inc., priority 2000, dated 2003).
